Six compounds from patent US11529359B2, “Use of GABAA receptor modulators for treatment of itch” (UNIVERSITÄT ZÜRICH, priority 2016, dated 2022) can be followed below.

The test system of assay [1] is α2, α3 or α5 GABAA receptors. Kind of assay: oxazolone contact dermatitis model of chronic itch in GABAAR triple point-mutated mice. Format: in vivo, mice (129X1/SvJ genetic background). As to conditions: 10 mg/kg i.p. on day 18; recorded 4 hours after injection.
In a further assay the target is T1, α5 GABAA receptors (Mus musculus, UniProt P22723+Q8BHJ7).
T1 construct: endogenous in cells; host or cells: living triple point-mutated mice with only α5 diazepam-sensitive
T1 sequence (Q8BHJ7 32-463 limits assumed): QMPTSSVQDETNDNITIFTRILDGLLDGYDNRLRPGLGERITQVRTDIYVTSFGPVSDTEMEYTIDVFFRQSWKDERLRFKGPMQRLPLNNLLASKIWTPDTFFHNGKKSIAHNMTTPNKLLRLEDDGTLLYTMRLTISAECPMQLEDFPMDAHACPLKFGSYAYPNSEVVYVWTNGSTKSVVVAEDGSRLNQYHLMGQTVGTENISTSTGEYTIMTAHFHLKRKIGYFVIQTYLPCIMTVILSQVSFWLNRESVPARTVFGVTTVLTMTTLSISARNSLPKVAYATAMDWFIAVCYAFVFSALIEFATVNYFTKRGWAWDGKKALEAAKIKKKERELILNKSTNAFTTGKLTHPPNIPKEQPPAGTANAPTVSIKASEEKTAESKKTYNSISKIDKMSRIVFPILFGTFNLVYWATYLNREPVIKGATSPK
T1 sequence (P63080 26-473 partner): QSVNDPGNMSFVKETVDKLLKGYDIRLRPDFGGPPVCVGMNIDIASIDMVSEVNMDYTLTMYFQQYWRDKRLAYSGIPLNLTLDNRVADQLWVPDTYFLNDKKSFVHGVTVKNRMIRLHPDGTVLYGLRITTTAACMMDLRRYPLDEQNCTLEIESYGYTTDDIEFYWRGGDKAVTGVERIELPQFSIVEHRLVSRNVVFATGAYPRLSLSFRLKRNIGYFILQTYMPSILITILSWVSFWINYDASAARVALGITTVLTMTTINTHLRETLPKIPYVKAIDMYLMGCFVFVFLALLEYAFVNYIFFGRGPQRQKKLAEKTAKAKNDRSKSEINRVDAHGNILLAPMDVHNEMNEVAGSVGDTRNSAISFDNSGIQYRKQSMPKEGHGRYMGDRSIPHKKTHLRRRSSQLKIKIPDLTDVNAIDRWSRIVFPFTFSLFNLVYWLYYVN
T1 sequence (P22723 39-474): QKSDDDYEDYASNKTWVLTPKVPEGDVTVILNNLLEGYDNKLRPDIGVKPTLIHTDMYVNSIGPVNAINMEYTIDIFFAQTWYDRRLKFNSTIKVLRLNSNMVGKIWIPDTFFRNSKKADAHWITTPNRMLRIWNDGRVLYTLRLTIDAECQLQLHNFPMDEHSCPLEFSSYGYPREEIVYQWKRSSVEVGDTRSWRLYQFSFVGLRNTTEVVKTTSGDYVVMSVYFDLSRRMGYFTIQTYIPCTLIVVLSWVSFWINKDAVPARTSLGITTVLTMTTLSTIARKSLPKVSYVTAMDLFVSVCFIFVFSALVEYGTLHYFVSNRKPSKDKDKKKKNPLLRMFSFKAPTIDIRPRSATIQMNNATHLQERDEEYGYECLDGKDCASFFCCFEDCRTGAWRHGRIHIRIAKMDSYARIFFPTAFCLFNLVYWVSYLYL
In words: α-Me-5HT-induced itch (cheek injection) in RRRH triple point-mutated mice (α5 only). As to conditions: DZP 10 mg/kg per oral 1 h before 20 μg α-Me-5HT, 20 min. Format: in vivo, mice (129X1/SvJ genetic background). The method, then:
(§1) Because mice of this particular genetic background (129SvJ) have not yet been systematically analyzed in itch experiments, the inventors first assessed the sensitivity of these mice to a battery of pruritogens injected into the right cheek.
(§2) Acute itch was assessed in mice that received intradermal microinjections of pruritogens or 0.9% saline into the right cheek, which had been shaved at least one day before the experiment. In two sets of experiments that addressed the contribution of GABAARs in primary and secondary pruritoceptors, pruritogens were injected in the right thigh (FIG. 17). Before injection, mice were acclimatized to a 15 cm diameter cylindrical enclosure for more than 30 min with cage bedding on the ground. Background white noise generated by a radio in the room at ambient volume was applied to prevent auditory distraction. […] Videos were analyzed off-line. Scratching of the hind paw directed to the ipsilateral cheek was counted in bouts, with one scratching bout defined as an instance when the mouse lifted its paw to scratch until it returned the paw to the cage floor. In case of experiments in which the pruritogen was injected in the skin of the thigh, the time spent biting the injected skin area was counted in s/min as a measure of itch.

The target in the next assay is T2, α2 GABAA receptors (Mus musculus, UniProt P22723+P26048).
T2 construct: endogenous in cells; host or cells: living RHRR triple point-mutated mice (129X1/SvJ)
T2 sequence (P26048 29-451): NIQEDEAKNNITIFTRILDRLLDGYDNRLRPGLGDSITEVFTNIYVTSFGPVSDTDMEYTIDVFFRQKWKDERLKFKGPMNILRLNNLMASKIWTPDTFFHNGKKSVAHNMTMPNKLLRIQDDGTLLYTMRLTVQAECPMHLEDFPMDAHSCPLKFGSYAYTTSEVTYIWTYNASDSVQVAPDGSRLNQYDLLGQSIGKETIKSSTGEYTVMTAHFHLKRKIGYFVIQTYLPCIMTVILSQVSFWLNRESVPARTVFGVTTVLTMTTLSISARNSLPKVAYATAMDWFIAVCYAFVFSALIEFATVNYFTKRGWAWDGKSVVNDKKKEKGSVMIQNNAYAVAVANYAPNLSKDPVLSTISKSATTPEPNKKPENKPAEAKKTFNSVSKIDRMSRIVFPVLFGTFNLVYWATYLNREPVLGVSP
T2 sequence (P63080 26-473 partner): as the sequence (P63080 26-473 partner) above
T2 sequence (P22723 39-474): as the sequence (P22723 39-474) above
In words: α-Me-5HT-induced itch (cheek injection) in RHRR triple point-mutated mice (α2 only). Format: in vivo, mice (129X1/SvJ genetic background). The method, then:
as §1, §2

Another assay addresses T3, α3 GABAA receptors (Mus musculus, UniProt P22723+P26049).
T3 construct: endogenous in cells; host or cells: living RRHR triple point-mutated mice (129X1/SvJ)
Kind of assay: α-Me-5HT-induced itch (cheek injection) in RRHR triple point-mutated mice (α3 only). Format: in vivo, mice (129X1/SvJ genetic background). The method, then: as §1, §2

Another assay concerns chloroquine-induced itch. Kind of assay: chloroquine-induced itch (cheek injection) in wild-type mice. Format: in vivo, wild-type C57BL6/J mice. The settings on record: 30 mg/kg intraperitoneal; 100 μg chloroquine; 30 min. The method, then:
as §2, with “distraction. A 30 gauge needle was inserted bevel-up and pushed 5 mm horizontally into the skin beyond the point of insertion, before injection of the pruritogen (in a total volume of 10 μl). No anesthesia was used. Correct injection was confirmed by the appearance of a slightly domed bulla upon injection.” for “distraction.”

The subject of assay [2] is brain membranes prepared from α1,2,3,5 H→R point mutated mice. Format: binding, mice (RRRR). The settings on record: 4 nM [3H]Ro 15-4513; increasing concentrations; n=4. The method, then: The supernatant was centrifuged for 20 min at 30,000 g and the resulting crude membrane pellet was washed once with buffer. […] Non-specific [^3H]Ro 15-4513 binding was assessed by addition of 10 μM flumazenil to the reaction. Incubation was stopped by rapid vacuum filtration using a semiautomatic cell harvester (Skatron Instruments) and washed filters were subjected to liquid scintillation counting.

In assay [3] the test system is contact dermatitis-induced chronic itch. In words: oxazolone contact dermatitis model of chronic itch in wild-type mice. Format: in vivo, wild-type C57BL6/J mice. The settings on record: 10 mg/kg i.p. on day 18; 15 to 210 min after injection. The method, then: Thus, TPA023B is, in accordance with the other findings of the inventors, suitable as an antipruritic substance.
This was independent of the treatment they received from day 7 to day 27.
The inventors sought to confirm the antipruritic efficacy of α2 and α3 GABAA receptor agonists against contact dermatitis-induced chronic itch. To this end, N-desmethyl clobazam, a benzodiazepine with improved activity at α2 versus α1 was assessed for its antipruritic effects (Jensen et al. PLoS One. 2014 Feb. 12; 9(2):e88456.).
Chronic itch was investigated in the contact dermatitis model (Kido-Nakahara, M., et al. J Clin Invest, 2014, 124, 2683-2695). Mice were treated once with 10% oxazolone in acetone/olive oil (4:1 v/v) on the shaved nape of the neck (100 μl) on day 0. After a resting period of 7 days, mice were treated with 1% oxazolone in acetone/olive oil (4:1 v/v) on the nape of the neck (100 μl) every other day for 10 days. On the day of the experiment, mice were injected with drug or vehicle i.p. under short and light isoflurane anesthesia. […]

For another assay, the system named is α-Me-5HT-induced itch. In words: α-methyl 5-HT-induced itch (cheek injection) in wild-type mice. Format: in vivo, wild-type mice (129X1/SvJ).
For a further assay, the target named is T4, α3 GABAA receptor (Mus musculus, UniProt P22723+P26049, H154R).
T4 construct: endogenous in cells; host or cells: living HHRH single point-mutated mice (knock-in)
T4 sequence (P26049 29-492 H154R): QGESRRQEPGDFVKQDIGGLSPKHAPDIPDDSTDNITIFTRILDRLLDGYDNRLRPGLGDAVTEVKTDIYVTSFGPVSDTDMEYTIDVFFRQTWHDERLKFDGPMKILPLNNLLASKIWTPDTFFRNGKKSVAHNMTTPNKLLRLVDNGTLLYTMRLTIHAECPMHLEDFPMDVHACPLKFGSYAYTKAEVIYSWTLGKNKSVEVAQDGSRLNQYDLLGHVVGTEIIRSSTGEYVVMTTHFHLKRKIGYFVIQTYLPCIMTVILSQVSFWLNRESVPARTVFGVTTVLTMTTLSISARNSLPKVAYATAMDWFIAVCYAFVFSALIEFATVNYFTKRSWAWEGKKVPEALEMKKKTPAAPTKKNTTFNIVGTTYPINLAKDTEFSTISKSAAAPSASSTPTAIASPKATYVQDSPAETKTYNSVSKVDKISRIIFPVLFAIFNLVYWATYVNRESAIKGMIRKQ
T4 sequence (P63080 26-473 partner): as the sequence (P63080 26-473 partner) above
T4 sequence (P22723 39-474): as the sequence (P22723 39-474) above
In words: α-Me-5HT-induced itch in HHRH mice (α3-GABAAR DZP-insensitive). Format: in vivo. As to conditions: 10 mg/kg per oral 1 h before 20 μg α-Me-5HT; 20 min. The method, then:
Wild-type and GABAAR single point mutated mice in which only α3 is rendered DZP-insensitive (HHRH mice) received per oral injection of 10 mg/kg TP003 or vehicle. One hour after injection, the mice received a 20 μg α-Me-5HT cheek injection to elicit itching. Over the course of twenty minutes scratching bouts directed at the ipsilateral cheek were recorded and TP003 injected mice compared with vehicle injected control mice (FIGS. 8A & 8B).
as §2, with “ground.” for “ground. Background white noise generated by a radio in the room at ambient volume was applied to prevent auditory distraction.”

The structures appear in SMILES notation.

T3 sequence (P26049 29-492): as the sequence (P26049 29-492 H154R) above, with R126H counted along it
T3 sequence (P63080 26-473 partner): as the sequence (P63080 26-473 partner) above
T3 sequence (P22723 39-474): as the sequence (P22723 39-474) above

Take `CN1C(=O)CN=C(c2ccccc2)c2cc(Cl)ccc21` [DZP, Diazepam]: the “number of scratching bouts directed at the nape of the neck vs vehicle” value in assay [1] is recorded as “significant reduction in the number of scratching bouts”. The “scratching bouts directed at the ipsilateral cheek vs vehicle” value on α5 GABAA receptors was “no significant reduction in scratching bouts”; at α2 GABAA receptors (RHRR mice (α2 only), DZP 10 mg/kg per oral 1 h before 20 μg α-Me-5HT, 20 min), “significant reduction of scratching bouts”; at α3 GABAA receptors (RRHR mice (α3 only), DZP 10 mg/kg per oral 1 h before 20 μg α-Me-5HT, 20 min) it was “significant reduction of scratching bouts”. Further, the “dose-response of scratching bouts” value on α2 GABAA receptors (RHRR mice, 0.1, 0.3, 1, 3, 10 and 30 mg/kg per oral 1 h before 20 μg α-Me-5HT, 30 min) was “dose-dependent reduction of scratching bouts”. The “dose-dependence of antipruritic effects” value at α3 GABAA receptors (RRHR mice (FIG. 2C), oral DZP 1 h before 20 μg α-Me-5HT) is given as “dose-dependent antipruritic effects”.
`CC(=O)[C@H]1CC[C@H]2[C@@H]3CC[C@H]4C[C@](C)(O)CC[C@]4(C)[C@H]3CC[C@]12C` [ganaxolone]: the “number of scratching bouts vs vehicle” value in the assay with chloroquine-induced itch is “significant reduction in number scratching bouts”.
Take `CC(C)(C)OC(=O)c1ncn2c1[C@@H]1CCCN1C(=O)c1c(Br)cccc1-2` [bretazenil]: the “displacement of [3H]Ro 15-4513 binding” value in [2] is given as “dose-dependently inhibited”.
In the case of `O=C1CC(=O)N(c2ccccc2)c2cc(Cl)ccc2N1` [NDMC, N-desmethyl clobazam], the “scratching bouts directed at the nape of the neck vs vehicle” value in assay [3] is listed as “significant reduction in scratching bouts”.
`CC(C)(O)c1ccn2c(-c3ccc(F)c(-c4ccc(F)cc4C#N)c3)cnc2c1F` [TP003, 4,2′-difluoro-5′-[8-fluoro-7-(1-hydroxy-1-methylethyl)imidazo[1,2-a]pyridin-3-yl]biphenyl-2-carbonitrile]: in the assay on α-Me-5HT-induced itch (wild-type 129X1/SvJ mice, 10 mg/kg per oral 1 h before 20 μg α-Me-5HT, 20 min), the “scratching bouts directed at the ipsilateral cheek vs vehicle” value is given as “significant reduction of scratching bouts”. In addition, the “antipruritic effect in HHRH mice” value on α3 GABAA receptor is listed as “absent”.
With `CC(N)Cc1c[nH]c2ccc(O)cc12` (stereo not drawn) [α-methyl 5-HT, α-methyl-5-hydroxy-tryptamine], the “scratching behavior directed to the injected site” value in the assay with α-Me-5HT-induced itch (different doses injected into the right cheek, wild-type 129X1/SvJ, 30 min) was “dose-dependent robust scratching behavior”.
